Data: patent US7390826B2, “Inhibitors of animal cell motility and growth” (The Board of Trustees of The University of Illinois, priority 2002, dated 2008)
pIC50: −log10 of the molar value. “Also recorded” adds a separate entry of the source. Where two headings read alike, the source gives them in different places.

Tests used:
[1] = tested on: Madin-Darby canine kidney (MDCK) cell monolayers; assay: scrape-wound closure assay in MDCK cell monolayers; type: cell-based
Description: A method of determining the ability of a compound to inhibit or accelerate cell motility is a scrape-wound closure assay using cultured mammalian epithelial cell monolayers. Mechanical scraping of the epithelial monolayer induces cell sheet migration into the resulting gap, a phenomenon characteristic of wounded epithelia and mechanistically related to normal epithelial movements during embryonic morphogenesis (A. Jacinto et al., Nat. Cell Biol, 3, E117 (2001)). Epithelial cell sheet migration in this method proceeds by a Rac- and phosphoinositide-dependent cell crawling mechanism resembling the motility of other animal cells that move as individuals rather than as cell sheets (G. Fenteany et al., Curr. Biol., 10, 831 (2000)).
Wound closure in MDCK cell monolayers primarily involves cell spreading and motility rather than proliferation based on observations and treatments that block cell growth without inhibiting closure. However, after closure is complete and the gap is covered, cell division is observed in the former wound area, presumably as part of a homeostatic mechanism to regain the original cell density (M. F. Olson et al., Science, 269, 1270 (1995)). Wound closure involves Rac- and phosphoinositide-dependent actin polymerization and protrusion-driven cell crawling behavior, where force generation for movement is distributed from the wound margin to several rows of cells behind the margin. Accordingly, this method is excellent for determining whether a compound affects cell motility.
Cell culture conditions: Madin-Darby canine kidney (MDCK) cells (American Type Culture Collection cell line CCL-34) were cultured in Minimum Essential Medium (with Earle's balanced salts, non-essential amino acids, L-glutamine and sodium pyruvate) supplemented with 10% newborn calf serum at 37° C. and 5% carbon dioxide (CO2). Main cultures were grown in either […] tissue culture flasks with medium changes every two days. When cultures were about 75% confluent, cells were passaged by rinsing twice with single strength phosphate buffered saline (PBS) and treating with a solution of 0.05% (w/v) trypsin/0.02% (w/v) ethylenediaminetetraacetic acid (EDTA) in PBS to detach cells from the flasks. After cells were detached, an equal volume of serum-containing medium was added to inhibit the trypsin and cell density was determined using a hemacytometer. Cells were replated following dilution in fresh medium on new tissue culture flasks for continued culture and multiwell tissue culture plates for experiments. No culture used exceeded 15 passages. Experimental cultures were grown in 12-, 24-, 48-, or 96-well tissue culture plates with medium changes every two days.
Wound closure assay and compound screening: MDCK cells were plated on multiwell tissue culture plates and cultured at 37° C. and 5% CO2 with medium changes every two days until confluent. When the cultures reached confluence, medium was changed again and all experimental treatments were begun a day later. Compounds were solubilized in dimethyl sulfoxide (DMSO) and added with fresh-medium to cell cultures at initial screening concentrations of 10 and 100 μM. Controls consisted of parallel wells to-which DMSO solvent carrier alone was added at the same concentration as that added with experimental treatments (not exceeding 0.1% (v/v)). DMSO alone at this concentration had no detectable effect on the cells. Monolayers were scraped 30 min later with a micropipette and ultramicro tips, allowing small wounds of consistent size to be generated. Progress of wound closure was examined at set time intervals following wounding by microscope, and inhibitory or acceleratory effects on wound closure relative to parallel controls noted. […] Digital images of the wounded monolayers were taken every 2 hours for 18 hours, and then at 30, 36, 54, 60, and 72 hours following wounding. The number of lamellipodia at the wound margin was also counted at these times. […]

[2] = tested on: MDCK cell wounds; assay: lamellipodial density at the margin of MDCK cell wounds; type: cell-based, canine; details: for Lamellipodial Density: 50 μM, mean ± SEM, * p<0.05 vs control
Method: Lamellipodial protrusion is known to drive most forms of animal cell crawling. At any given time in the migrating cell sheet, some cells are extending lamellipodia at the margin while others are not. […] Therefore, inhibition of cell sheet migration by compound 1 at least in part is attributed to reduced formation of lamellipodia at the would margin.
Lamellipodial density at the margin of MDCK cell wounds was determined under the following treatment conditions: 0.1% DMSO (control, n=25 wounded monolayers), 50 μM compound 1 (n=19), or 50 μM compound 11 (n=10). Lamellipodial density is the number of lamellipodial protrusions detected at the wound margin until closure for the times indicated divided by margin perimeter length. Values are mean±SEM.
Wound closure assay and compound screening: MDCK cells were plated on multiwell tissue culture plates and cultured at 37° C. and 5% CO2 with medium changes every two days until confluent. When the cultures reached confluence, medium was changed again and all experimental treatments were begun a day later. Compounds were solubilized in dimethyl sulfoxide (DMSO) and added with fresh-medium to cell cultures at initial screening concentrations of 10 and 100 μM. Controls consisted of parallel wells to-which DMSO solvent carrier alone was added at the same concentration as that added with experimental treatments (not exceeding 0.1% (v/v)). DMSO alone at this concentration had no detectable effect on the cells. Monolayers were scraped 30 min later with a micropipette and ultramicro tips, allowing small wounds of consistent size to be generated. Progress of wound closure was examined at set time intervals following wounding by microscope, and inhibitory or acceleratory effects on wound closure relative to parallel controls noted. […] Digital images of the wounded monolayers were taken every 2 hours for 18 hours, and then at 30, 36, 54, 60, and 72 hours following wounding. The number of lamellipodia at the wound margin was also counted at these times.

[3] = tested on: MDCK cell monolayers; assay: filamentous actin staining (rhodamine-phalloidin) of wounded MDCK monolayers; type: cell-based, canine; details: 50 μM; 12 hours after wounding
Method: Although formation of perimarginal actin bundles is not required for wound closure in this system, these actin bundles may help to distribute force in the first row of cells from actively protruding and moving cells to less-actively motile cells, thus making the closure process more regular and uniform than it would be otherwise.
Filamentous actin staining: MDCK cell mono-layers on glass coverslips-were fixed with 3.7% formaldehyde in PBS 12 hours after wounding. Cells were permeabilized with 0.1% (w/v) TRITONO X-100 in PBS, stained with 50 nM tetramethylrhodamine-conjugated phalloidin in PBS, and washed twice with PBS. Coverslips were mounted in 90% glycerol/10% ten strength PBS with 2 mg/mL p-phenylenediamine on glass slides and then examined by fluorescence microscopy.

Q: `C/C=C/C(=O)N1C(=O)OC[C@@H]1Cc1ccccc1` [Compound 1, (4S)-3-((E)-2-butenoyl)-4-benzyl-2-oxazolidinone] was tested. Which pIC50 ([1]; Canis lupus familiaris, MDCK, 12 h, read-out: calculated IC50 for inhibition of wound closure at 12 hours) did it give?
A: The pIC50 was 4.85.

Q: And the IC50 ([1]; Canis lupus familiaris, MDCK, 12 h, read-out: log IC50±standard error of log IC50 (converted))?
A: The IC50 was 14 µM.

Q: What about the “inhibition of cell motility / epithelial cell sheet migration during wound closure” value ([1]; MDCK cells, p<0.05) of the same compound?
A: Its value is “potent inhibitor of cell motility; also recorded: inhibits epithelial cell sheet migration during wound closure”.

Q: What about the “inhibition of wound closure in serum-free conditions” value ([1]; serum-free) of the same compound?
A: Its value is “inhibited wound closure to a similar degree relative to the control”.

Q: What about the “reversibility of inhibition of wound closure” value ([1]; upon changing to compound-free medium) of the same compound?
A: Its value is “reversible”.

Q: What about the “Lamellipodial Density” value ([2]; 2 hours) of the same compound?
A: Its value is 0.341 ± 0.119.

Q: What about the “Lamellipodial Density” value ([2]; 4 hours) of the same compound?
A: The value was 0.573 ± 0.194*.

Q: What about the “Lamellipodial Density” value ([2]; 6 hours) of the same compound?
A: Its value is 0.563 ± 0.142*.

Q: What about the “Lamellipodial Density” value ([2]; 8 hours) of the same compound?
A: Its value is 0.938 ± 0.184*.

Q: What about the “Lamellipodial Density” value ([2]; 10 hours) of the same compound?
A: The value was 0.803 ± 0.203.

Q: And the “Lamellipodial Density” value ([2]; 12 hours)?
A: Its value is 0.520 ± 0.124*.

Q: What about the “cells extending lamellipodia at the margin” value ([2]; versus control) of the same compound?
A: Its value is “significantly fewer cells extending lamellipodia at the margin”.

Q: And the “formation of filamentous actin bundles at wound margin” value [3]?
A: The value was “did not affect formation of filamentous actin bundles”.
